Data reported in PubChem BioAssay (NCI).
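Exposure lasted 48 hours, with cells grown in 96-well plates and compounds tested at five concentrations. GI50 = concentration required for 50% inhibition of growth. TGI: total growth inhibition.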

How the values were obtained:
Experiment in all cases: inhibition of tumour cell growth, NCI panel, 48 h
SNB-19 CNS = test system: SNB-19 CNS
HCC-2998 colon = test system: HCC-2998 colon
UACC-257 melanoma = test system: UACC-257 melanoma
HCT-116 colon = test system: HCT-116 colon
UO-31 renal = test system: UO-31 renal
786-0 renal = test system: 786-0 renal
TK-10 renal = test system: TK-10 renal
MDA-MB-435 = test system: MDA-MB-435
OVCAR-4 ovarian = test system: OVCAR-4 ovarian
DU-145 prostate = test system: DU-145 prostate
NCI-H522 lung = test system: NCI-H522 lung
EKVX NSCLC = test system: EKVX NSCLC
NCI-H460 lung = test system: NCI-H460 lung
M14 melanoma = test system: M14 melanoma
A498 renal = test system: A498 renal
HCT-15 colon = test system: HCT-15 colon
OVCAR-3 ovarian = test system: OVCAR-3 ovarian
MCF7 breast = test system: MCF7 breast
MALME-3M melanoma = test system: MALME-3M melanoma
HT29 colon = test system: HT29 colon
A549 NSCLC = test system: A549 NSCLC
SN12C renal = test system: SN12C renal
BT-549 breast = test system: BT-549 breast
SW-620 colon = test system: SW-620 colon
SK-OV-3 ovarian = test system: SK-OV-3 ovarian
NCI-H226 lung = test system: NCI-H226 lung
SK-MEL-2 melanoma = test system: SK-MEL-2 melanoma
KM12 colon = test system: KM12 colon
SK-MEL-5 melanoma = test system: SK-MEL-5 melanoma
HOP-62 NSCLC = test system: HOP-62 NSCLC
MDA-N = test system: MDA-N
MDA-MB-231 breast = test system: MDA-MB-231 breast
COLO 205 colon = test system: COLO 205 colon
PC-3 prostate = test system: PC-3 prostate
OVCAR-5 ovarian = test system: OVCAR-5 ovarian
HOP-92 NSCLC = test system: HOP-92 NSCLC
SF-539 CNS = test system: SF-539 CNS
CAKI-1 renal = test system: CAKI-1 renal
OVCAR-8 ovarian = test system: OVCAR-8 ovarian
NCI-H23 lung = test system: NCI-H23 lung
HS 578T breast = test system: HS 578T breast
HL-60(TB) leukemia = test system: HL-60(TB) leukemia
U251 CNS = test system: U251 CNS
SF-295 CNS = test system: SF-295 CNS
SNB-75 CNS = test system: SNB-75 CNS
RXF 393 renal = test system: RXF 393 renal
NCI/ADR-RES ovarian = test system: NCI/ADR-RES ovarian
CCRF-CEM leukemia = test system: CCRF-CEM leukemia
UACC-62 melanoma = test system: UACC-62 melanoma
ACHN renal = test system: ACHN renal
RPMI-8226 leukemia = test system: RPMI-8226 leukemia
K-562 leukemia = test system: K-562 leukemia
SR leukemia = test system: SR leukemia
T-47D breast = test system: T-47D breast
SK-MEL-28 melanoma = test system: SK-MEL-28 melanoma
MOLT-4 leukemia = test system: MOLT-4 leukemia
SF-268 CNS = test system: SF-268 CNS
LOX IMVI melanoma = test system: LOX IMVI melanoma
IGROV1 ovarian = test system: IGROV1 ovarian

With `COc1cc2cc(C(=O)N3CC(CCl)c4c3cc(NC(=O)C(C)Nc3c([N+](=O)[O-])cc(C(=O)NCCN(C)C)cc3[N+](=O)[O-])c3ccccc43)[nH]c2c(OC)c1OC` (configuration not stated) the TGI (SNB-19 CNS) was 0.909 µM, the TGI (HCC-2998 colon) was 0.16 µM and the TGI (UACC-257 melanoma) was 0.359 µM. The TGI (HCT-116 colon) was 0.572 µM, the TGI (UO-31 renal) was 3.35 µM and the TGI (786-0 renal) was 0.235 µM. The TGI (TK-10 renal) was 1.44 µM, the TGI (MDA-MB-435) was 0.356 µM and the TGI (OVCAR-4 ovarian) was 0.551 µM. It also gave a TGI (DU-145 prostate) of 1.03 µM, a TGI (NCI-H522 lung) of 0.279 µM and a TGI (EKVX NSCLC) of 1.01 µM. For the same compound, the TGI (NCI-H460 lung) was 0.178 µM, the TGI (M14 melanoma) was 0.374 µM and the TGI (A498 renal) was 0.992 µM. For the same compound, the TGI (HCT-15 colon) was 2.5 µM, the TGI (OVCAR-3 ovarian) was 0.433 µM and the TGI (MCF7 breast) was 0.127 µM. For the same compound, the TGI (MALME-3M melanoma) was 0.27 µM, the TGI (HT29 colon) was 0.419 µM and the TGI (A549 NSCLC) was 0.362 µM. The TGI (SN12C renal) was 0.643 µM, the TGI (BT-549 breast) was 0.649 µM and the TGI (SW-620 colon) was 0.285 µM. The TGI (SK-OV-3 ovarian) was 2.23 µM, the TGI (NCI-H226 lung) was 0.34 µM and the TGI (SK-MEL-2 melanoma) was 0.159 µM. It also gave a TGI (KM12 colon) of 0.457 µM, a TGI (SK-MEL-5 melanoma) of 0.232 µM and a TGI (HOP-62 NSCLC) of 0.283 µM. For the same compound, the TGI (MDA-N) was 0.371 µM, the TGI (MDA-MB-231 breast) was 0.342 µM and the TGI (COLO 205 colon) was 0.192 µM. The TGI (PC-3 prostate) was 1.16 µM, the TGI (OVCAR-5 ovarian) was 0.544 µM and the TGI (HOP-92 NSCLC) was 0.0297 µM.
`CCCCCCNC(=O)Oc1ccc(/C(=C(/C)Cc2ccc(OC)cc2)c2ccc(OCCN(C)C)cc2)cc1` was tested, and the GI50 (SNB-19 CNS) was 5.6 µM, the TGI (SNB-19 CNS) was 10.4 µM and the GI50 (SF-539 CNS) was 5.01 µM. The TGI (SF-539 CNS) was 9.64 µM, the GI50 (HCC-2998 colon) was 3.82 µM and the TGI (HCC-2998 colon) was 8.43 µM. For the same compound, the GI50 (CAKI-1 renal) was 5.39 µM, the TGI (CAKI-1 renal) was 9.95 µM and the GI50 (UACC-257 melanoma) was 6.42 µM. The TGI (UACC-257 melanoma) was 11.9 µM, the GI50 (OVCAR-8 ovarian) was 5.32 µM and the TGI (OVCAR-8 ovarian) was 11.1 µM. The GI50 (NCI-H23 lung) was 5.28 µM, the TGI (NCI-H23 lung) was 10.5 µM and the GI50 (HCT-116 colon) was 5.52 µM. The TGI (HCT-116 colon) was 10.3 µM, the GI50 (HS 578T breast) was 5.87 µM and the TGI (HS 578T breast) was 12.3 µM. It also gave a GI50 (UO-31 renal) of 3.87 µM, a TGI (UO-31 renal) of 8.03 µM and a GI50 (HL-60(TB) leukemia) of 4.82 µM. For the same compound, the TGI (HL-60(TB) leukemia) was 10.3 µM, the GI50 (786-0 renal) was 4.97 µM and the TGI (786-0 renal) was 9.49 µM. For the same compound, the GI50 (U251 CNS) was 3.61 µM, the TGI (U251 CNS) was 7.9 µM and the GI50 (TK-10 renal) was 4.52 µM. It also gave a TGI (TK-10 renal) of 9.02 µM, a GI50 (SF-295 CNS) of 5.2 µM and a TGI (SF-295 CNS) of 9.82 µM. For the same compound, the GI50 (SNB-75 CNS) was 3.99 µM, the TGI (SNB-75 CNS) was 8.53 µM and the GI50 (MDA-MB-435) was 4.62 µM. It also gave a TGI (MDA-MB-435) of 9.17 µM, a GI50 (RXF 393 renal) of 4.36 µM and a TGI (RXF 393 renal) of 9.23 µM. The GI50 (NCI/ADR-RES ovarian) was 5.07 µM, the TGI (NCI/ADR-RES ovarian) was 10.7 µM and the GI50 (CCRF-CEM leukemia) was 1.35 µM. The TGI (CCRF-CEM leukemia) was 5.37 µM, the GI50 (OVCAR-4 ovarian) was 5.02 µM and the TGI (OVCAR-4 ovarian) was 10.3 µM. For the same compound, the GI50 (UACC-62 melanoma) was 4.44 µM, the TGI (UACC-62 melanoma) was 8.72 µM and the GI50 (DU-145 prostate) was 5.55 µM. For the same compound, the TGI (DU-145 prostate) was 10.4 µM, the GI50 (NCI-H522 lung) was 5.61 µM and the TGI (NCI-H522 lung) was 10.6 µM. For the same compound, the GI50 (ACHN renal) was 5.43 µM, the TGI (ACHN renal) was 9.99 µM and the GI50 (RPMI-8226 leukemia) was 0.983 µM. It also gave a TGI (RPMI-8226 leukemia) of 2.7 µM, a GI50 (K-562 leukemia) of 1.1 µM and a TGI (K-562 leukemia) of 3.63 µM. For the same compound, the GI50 (EKVX NSCLC) was 4.91 µM, the TGI (EKVX NSCLC) was 10.1 µM and the GI50 (NCI-H460 lung) was 4.22 µM. For the same compound, the TGI (NCI-H460 lung) was 8.93 µM, the GI50 (M14 melanoma) was 6.18 µM and the TGI (M14 melanoma) was 11.5 µM. For the same compound, the GI50 (A498 renal) was 5.34 µM, the TGI (A498 renal) was 9.92 µM and the GI50 (HCT-15 colon) was 2.02 µM. For the same compound, the TGI (HCT-15 colon) was 6.6 µM, the GI50 (OVCAR-3 ovarian) was 4.93 µM and the TGI (OVCAR-3 ovarian) was 9.79 µM. The GI50 (MCF7 breast) was 1.29 µM, the TGI (MCF7 breast) was 6.98 µM and the GI50 (MALME-3M melanoma) was 4.49 µM. The TGI (MALME-3M melanoma) was 9.64 µM, the GI50 (SR leukemia) was 1.32 µM and the TGI (SR leukemia) was 6.55 µM. For the same compound, the GI50 (HT29 colon) was 1.2 µM, the TGI (HT29 colon) was 4.58 µM and the GI50 (T-47D breast) was 1.41 µM. The TGI (T-47D breast) was 7.12 µM, the GI50 (SK-MEL-28 melanoma) was 3.88 µM and the TGI (SK-MEL-28 melanoma) was 8.06 µM. The GI50 (A549 NSCLC) was 5.65 µM, the TGI (A549 NSCLC) was 10.8 µM and the GI50 (SN12C renal) was 4.84 µM. It also gave a TGI (SN12C renal) of 9.44 µM, a GI50 (BT-549 breast) of 5.11 µM and a TGI (BT-549 breast) of 9.86 µM. The GI50 (SW-620 colon) was 4.86 µM, the TGI (SW-620 colon) was 9.59 µM and the GI50 (SK-OV-3 ovarian) was 4.99 µM. For the same compound, the TGI (SK-OV-3 ovarian) was 9.5 µM, the GI50 (NCI-H226 lung) was 6.18 µM and the TGI (NCI-H226 lung) was 11.9 µM. The GI50 (SK-MEL-2 melanoma) was 5.91 µM, the TGI (SK-MEL-2 melanoma) was 11 µM and the GI50 (KM12 colon) was 4.98 µM. For the same compound, the TGI (KM12 colon) was 10.1 µM, the GI50 (MOLT-4 leukemia) was 5.23 µM and the TGI (MOLT-4 leukemia) was 11.5 µM. For the same compound, the GI50 (SK-MEL-5 melanoma) was 5.46 µM, the TGI (SK-MEL-5 melanoma) was 10.2 µM and the GI50 (HOP-62 NSCLC) was 6.18 µM. The TGI (HOP-62 NSCLC) was 11 µM, the GI50 (MDA-MB-231 breast) was 5 µM and the TGI (MDA-MB-231 breast) was 9.65 µM. For the same compound, the GI50 (SF-268 CNS) was 5.07 µM, the TGI (SF-268 CNS) was 10.9 µM and the GI50 (LOX IMVI melanoma) was 4.39 µM. For the same compound, the TGI (LOX IMVI melanoma) was 8.8 µM, the GI50 (COLO 205 colon) was 4.71 µM and the TGI (COLO 205 colon) was 9.79 µM. For the same compound, the GI50 (PC-3 prostate) was 1.66 µM, the TGI (PC-3 prostate) was 5.96 µM and the GI50 (OVCAR-5 ovarian) was 4.58 µM. For the same compound, the TGI (OVCAR-5 ovarian) was 8.99 µM, the GI50 (HOP-92 NSCLC) was 3.49 µM and the TGI (HOP-92 NSCLC) was 7.9 µM. For the same compound, the GI50 (IGROV1 ovarian) was 4.62 µM and the TGI (IGROV1 ovarian) was 9.6 µM.
